Measured values: ChEMBL document CHEMBL4680162, “Synthesis and pharmacological evaluation of chlorin derivatives for photodynamic therapy of cholangiocarcinoma” (Eur J Med Chem, 2020)

How the values were obtained:
[1] = Phototoxicity in BALB/c nude mouse xenografted with QBC939 cells assessed as change in heart at 1 mg/kg, iv followed by laser light irradiation at 120 J/cm2 measured after 1 day of light irradiation by H and E staining based histological analysis; assay type: organism-based; conditions: in vivo, 24 h
[2] = Phototoxicity in BALB/c nude mouse xenografted with QBC939 cells assessed as change in liver at 1 mg/kg, iv followed by laser light irradiation at 120 J/cm2 measured after 1 day of light irradiation by H and E staining based histological analysis; assay type: organism-based; conditions: in vivo, 24 h
[3] = Induction of apoptosis in human QBC939 cells assessed as late apoptotic cells at 2 uM by annexin V-FITC and propidium iodide staining based flow cytometric analysis; assay type: functional
[4] = Induction of apoptosis in human QBC939 cells assessed as viable cells at 2 uM in presence of 2J/cm2 light irradiation measured after 2 hrs by annexin V-FITC and propidium iodide staining based flow cytometric analysis (reference value: 99.6 %); assay type: functional; conditions: QBC939, light or radiation study, read-out: Activity
[5] = Drug uptake in mouse assessed as drug level in plasma at 1 mg/kg, iv measured upto 24 hrs by fluorometric method; assay type: ADME, organism-based; conditions: in vivo
[6] = Drug localization in lysosome of human QBC939 cells at 4 uM incubated for 4 hrs in dark by lyso-tracker blue based confocal microscopic method; assay type: ADME, subcellular; conditions: qbc939, 4 h
[7] = Drug uptake in nude mouse xenografted with QBC939 cells assessed as drug level in tumor tissue at 1 mg/kg, iv measured after 24 hrs by fluorescence imaging assay; assay type: ADME, organism-based, Neoplasm; conditions: in vivo
[8] = Phototoxicity in ICR mouse assessed as tail weight at 1 mg/kg, iv followed by 10 mW/cm2 light irradiation for 10 mins at 1 day after drug challenge and measured after 1 day of light irradiation by H and E staining based microscopic analysis (reference value: 115.6 +/- 5.6 mg); assay type: organism-based; conditions: in vivo, 48 h, time 2 day
[9] = Induction of apoptosis in human QBC939 cells assessed as viable cells at 2 uM by annexin V-FITC and propidium iodide staining based flow cytometric analysis (reference value: 99.99 %); assay type: functional; conditions: read-out: Activity
[10] = Induction of apoptosis in human QBC939 cells assessed as early apoptotic cells at 2 uM by annexin V-FITC and propidium iodide staining based flow cytometric analysis (reference value: 0.01 %); assay type: functional
[11] = Emission property of compound in poly-oxyethylene castor oil and PBS assessed as Q band emission wavelength by […]; assay type: physicochemical; conditions: buffer
[12] = Phototoxicity against human QBC939 cells assessed as reduction in cell viability irradiated with 4 J/cm2 of 650 nanometer laser light preincubated for 24 hrs in dark and measured after 24 hrs by MTT assay; assay type: functional, cell-based; conditions: QBC939, light or radiation study
[13] = Absorption property of the compound in DMSO assessed as Q band log absorption coefficient by UV-visible spectrophotometric method; assay type: physicochemical
[14] = Phototoxicity in BALB/c nude mouse xenografted with QBC939 cells assessed as change in kidney at 1 mg/kg, iv followed by laser light irradiation at 120 J/cm2 measured after 1 day of light irradiation by H and E staining based histological analysis; assay type: organism-based; conditions: in vivo, 24 h
[15] = Phototoxicity in BALB/c nude mouse xenografted with QBC939 cells assessed as change in spleen at 1 mg/kg, iv followed by laser light irradiation at 120 J/cm2 measured after 1 day of light irradiation by H and E staining based histological analysis; assay type: organism-based; conditions: in vivo, 24 h
[16] = Phototoxicity against human QBC939 cells assessed as reduction in cell viability irradiated with 2 J/cm2 of 650 nanometer laser light preincubated for 24 hrs in dark and measured after 24 hrs by MTT assay; assay type: functional, cell-based; conditions: QBC939, light or radiation study
[17] = Emission property of compound in DMF assessed as Q band emission wavelength by […]; assay type: physicochemical

SMILES: COC(=O)C1(C(=O)O)C2c3nc(c(-c4ccccc4)c4ccc([nH]4)c(-c4ccccc4)c4nc(c(-c5ccccc5)c5ccc([nH]5)c3-c3ccccc3)C=C4)C21 (configuration not stated)
- Activity [1]: Non-Toxic
- Activity [2]: Non-Toxic
- Activity [3]: 2.06%
- viability at 2 µM [4]: 51.3%
- Drug uptake [5]: Active
- Drug uptake [6]: Active
- Drug uptake [7]: Active
- Activity [8]: 116.5 mg
- viability at 2 µM [9]: 94.3%
- Activity [10]: 0.04%
- Activity [11]: 654 nm
- IC50 [12]: 780 nM
- Activity [13]: 4.02
- Activity [14]: Non-Toxic
- Activity [15]: Non-Toxic
- IC50 [16]: 1360 nM
- Activity [17]: 656 nm
